IC50 data for 33 compounds are collected here from patent US12459921B2, “Isoindoline compound, preparation method, pharmaceutical composition and use thereof” (SHANGHAI INSTITUTE OF MATERIA MEDICA, CHINESE ACADEMY OF …, priority 2018, dated 2025).

SMILES strings stand for the structures. A value given as a limit tells only on which side of the number the result lay.

The test system of this experiment is MM.1S cells. Description: Inhibitory effect on the proliferation of MM.1S, MTS cell viability test. The experiment is classed as cell-based. The following applies: Homo sapiens, MM1.S, 168 h, multiple myeloma MM.1S cells, 7 days incubation, read-out: Tumor cell inhibitory activity. As for the experimental part: Method of tumor cell proliferation inhibition test: the inventors tested all the example compounds on hematologic tumor cells, multiple myeloma MMTs cell line and acute leukemia cell MV-4-11 cell line of some examples. The activity test method and results are as follows.
1. The Compound's Inhibitory Effect on the Proliferation of MM.1S, MTS Cell Viability Test:
MM.1S cells were cultured and collected with 1640 plus 10% fetal bovine serum. The cell concentration was diluted according to 7 days, and 180 ul cell suspension was added to each well of the 96-well cell plate to 20,000 cells. 20 ul of DMSO with a final concentration of 0.2% was added to the control wells. The compound was 5-fold diluted—from the 10 mM stock solution, and 20 ul was also added to each compound cell well (the final concentration of DMSO was 0.2%). The cells were placed in a 37° C., 5% CO2 incubator to incubate for 7 days. After the reaction solution was prepared according to the MTS kit (Promega, G5430), 20 μL was added to each well and incubated in a 37° C., 5% CO2 incubator for 3-4 h. Absorbance value at 490 nm was read with a microtiter plate, and 690 nm absorbance value was used as the background value. OD490-OD690 was used as the final initial data. The formula for calculating the inhibition rate of the compound is: inhibition rate=(ODDMSO-ODcompound)/(ODDMSO-Oblank)×100%. The compound's proliferation inhibition IC50 was fitted by Graph Pad Prism 5.0. The experiment was repeated three times, and the average and standard deviation was calculated according to the three parallel experiments.
Cell viability test results: **** represents cell viability IC50>20 μM, […] represents cell viability 1 μM<IC50<20 μM, ** represents cell viability 100 nM<IC50<1 μM, * represents cell viability IC50<100 nM.
Background: Formazan colour is commonly taken as a measure of viable cells.

In the case of `N[C@@H](CCCc1cccc2c1CN(C1CCC(=O)NC1=O)C2=O)c1nc2cccc(Br)c2[nH]1` (stereo in doubt) [Example 195, 3-(4-((S)-4-amino-4-(7-bromo-1H-benzo[d]imidazole-2-)butyl)-1-oxoisoindoline-2-)piperidine-2,6-dione], the IC50 was in the range of 100 to 1000 nM. Under `O=C1CCC(N2Cc3c(CCCCCOc4ccnc5ccccc45)cccc3C2=O)C(=O)N1` (stereo not drawn) [Example 1, 3-(1-oxo-4-(5-(quinoline-4-oxy)pentyl)isoindoline-2-)piperidine-2,6-dione] stands under 100 nM; under `O=C1CCC(N2Cc3c(CCCOc4ccnc5ccccc45)cccc3C2=O)C(=O)N1` (stereo not drawn) [Example 2, 3-(1-oxo-4-(3-(quinoline-4-oxy)propyl)isoindoline-2-)piperidine-2,6-dione], 100 to 1000 nM. Under `O=C1CCC(N2Cc3c(CCCCCCOc4ccnc5ccccc45)cccc3C2=O)C(=O)N1` (stereo not drawn) [Example 3, 3-(1-oxo-4-(6-(quinoline-4-oxy)hexyl)isoindoline-2-)piperidine-2,6-dione] stands under 100 nM; under `O=C1CCC(N2Cc3c(OCCCOc4ccnc5ccccc45)cccc3C2=O)C(=O)N1` (stereo not drawn) [Example 4, 3-(1-oxo-4-(3-(quinoline-4-oxy)propoxy)isoindoline-2-)piperidine-2,6-dione], 1000 to 20000 nM. The result for `O=C1CCC(N2Cc3c(CCCCCOc4cccc5cnccc45)cccc3C2=O)C(=O)N1` (stereo not drawn) [Example 5] reads 100 to 1000 nM; that for `O=C1CCC(N2Cc3c(OCCCCOc4ccnc5ccccc45)cccc3C2=O)C(=O)N1` (stereo not drawn) [Example 6, 3-(1-oxo-4-(4-(quinoline-4-oxy)butoxy)isoindoline-2-)piperidine-2,6-dione], under 100 nM; that for `Cc1ccc2nc(C(F)(F)F)cc(OCCCCCc3cccc4c3CN(C3CCC(=O)NC3=O)C4=O)c2c1` (stereo not drawn) [Example 7, 3-(4-(5-((6-methyl-2-(trifluoromethyl)quinoline-4-)oxy)pentyl)-1-oxoisoindoline-2-)piperidine-2,6-dione], 100 to 1000 nM. As to `O=C1CCC(N2Cc3c(OCCCCOc4cc(C5CC5)nc5ccccc45)cccc3C2=O)C(=O)N1` (stereo not drawn) [Example 8, 3-(4-(4-((2-cyclopropylquinoline-4-)oxy)butoxy)-1-oxoisoindoline-2-)piperidine-2,6-dione], the IC50 was under 100 nM. For `O=C1CCC(N2Cc3c(CCCCCOc4ccnc5ccsc45)cccc3C2=O)C(=O)N1` (stereo not drawn) [Example 9, 3-(1-oxo-4-(5-(thieno[3,2-b]pyridine-7-oxy)pentyl)isoindoline-2-)piperidine-2,6-dione], the IC50 is under 100 nM.

For the compound `CCc1cc(OCCCCOc2cccc3c2CN(C2CCC(=O)NC2=O)C3=O)c2ccccc2n1` (stereo not drawn) [Example 10, 3-(4-(4-((2-ethylquinoline-4-)oxy)butoxy)-1-oxoisoindoline-2-)piperidine-2,6-dione], the IC50 is under 100 nM. Under `O=C1CCC(N2Cc3c(CCCCCOc4cnc5ccccc5c4)cccc3C2=O)C(=O)N1` (stereo not drawn) [Example 11, 3-(1-oxo-4-(5-(quinoline-3-oxy)pentyl)isoindoline-2-)piperidine-2,6-dione] stands under 100 nM. `O=C1CCC(N2Cc3c(OCCCCCOc4ccnc5ccccc45)cccc3C2=O)C(=O)N1` (stereo not drawn) [Example 12, 3-(1-oxo-4-((5-(quinoline-4-oxy)pentyl)oxy)isoindoline-2-)piperidine-2,6-dione]: the IC50 was 100 to 1000 nM.

For `O=C1CCC(N2Cc3c(CCCCCOc4cc(C(F)(F)F)nc5ccccc45)cccc3C2=O)C(=O)N1` (stereo not drawn) [Example 13, 3-(1-oxo-4-(5-((2-(trifluoromethyl)quinoline-4-)oxy)pentyl)isoindoline-2-)piperidine-2,6-ditone], the IC50 is under 100 nM. Under `O=C1CCC(N2Cc3c(OCCCCCCOc4ccnc5ccccc45)cccc3C2=O)C(=O)N1` (stereo not drawn) [Example 14, 3-(1-oxo-4-((6-(quinoline-4-oxy)hexyl)oxy)isoindoline-2-)piperidine-2,6-dione] stands under 100 nM. For `O=C1CCC(N2Cc3c(CCCCOc4ccnc5ccccc45)cccc3C2=O)C(=O)N1` (stereo not drawn) [Example 15, 3-(1-oxo-4-(4-(quinoline-4-oxy)butyl)isoindoline-2-)piperidine-2,6-dione], the IC50 is under 100 nM. The result for `O=C1CCC(N2Cc3c(CCCCCN4CCOCC4)cccc3C2=O)C(=O)N1` (stereo not drawn) [Example 16, 3-(4-(5-morpholinpentyl)-1-oxoisoindoline-2)-piperidine-2,6-dione] reads 100 to 1000 nM. On to `O=C1CCC(N2Cc3c(CCCCCN4CCCC4c4ccccc4)cccc3C2=O)C(=O)N1` (stereo not drawn) [Example 17, 3-(1-oxo-4-(5-(2-phenylpyrroline-1-)pentyl)indoline-2-)piperidine-2,6-dione], for which the IC50 is under 100 nM. The result for `O=C1CCC(N2Cc3c(CCCCCN4CCN(c5ccccc5)CC4)cccc3C2=O)C(=O)N1` (stereo not drawn) [Example 18, 3-(1-oxo-4-(5-(4-phenylpiperazine-1-)pentyl)indoline-2-)piperidine-2,6-dione] reads under 100 nM; that for `COc1ccccc1N1CCN(CCCCCc2cccc3c2CN(C2CCC(=O)NC2=O)C3=O)CC1` (stereo not drawn) [Example 19, 3-(4-(5-(4-(2-methoxyphenyl)piperazine-1-)pentyl)-1-oxoindoline-2-)piperidine-2,6-dione], under 100 nM.

As for `O=C1CCC(N2Cc3c(CCCCCN4CCC(c5ccccc5)CC4)cccc3C2=O)C(=O)N1` (stereo not drawn) [Example 20, 3-(1-oxo-4-(5-(4-phenylpiperidine-1-)pentyl)indoline-2-)piperidine-2,6-dione], the IC50 is over 20000 nM. Take `O=C1CCC(N2Cc3c(CCCCN4CCN(c5cccc(Cl)c5Cl)CC4)cccc3C2=O)C(=O)N1` (stereo not drawn) [Example 21, 3-(4-(4-(4-(2,3-dichlorophenyl)piperazine-1-)butyl)-1-oxoisoindoline-2-)piperidine-2,6-dione]: the IC50 was under 100 nM. As to `O=C1CCC(N2Cc3c(CCCCCN4CCN(c5cccc(C(F)(F)F)c5)CC4)cccc3C2=O)C(=O)N1` (stereo not drawn) [Example 23, 3-(1-oxo-4-(5-(4-(3-trifluoromethylphenyl)piperazine-1-)pentyl)isoindoline-2-)piperidine-2,6-dione], the IC50 was under 100 nM. Consider `O=C1CCC(N2Cc3c(CCCCCN4CCN(c5ccnc6ccccc56)CC4)cccc3C2=O)C(=O)N1` (stereo not drawn) [Example 24, 3-(1-oxo-4-(5-(4-(quinoline-4-)piperazine-1-)pentyl)isoindoline-2-)piperidine-2,6-dione], for which the IC50 was under 100 nM. `C[C@]1(N2Cc3c(OCCCN4CCN(c5cccc(Cl)c5Cl)CC4)cccc3C2=O)CCC(=O)NC1=O` [Example 25, (S)-3-(4-(3-(4-(2,3-dichlorophenyl)piperazine-1-)propoxy)-1-oxoisoindoline-2-)-3-methylpiperidine-2,6-dione]: the IC50 was 1000 to 20000 nM. For the compound `O=C1CCC(N2Cc3c(CCCCCN4CCN(c5cccc(Cl)c5Cl)CC4)cccc3C2=O)C(=O)N1` (stereo not drawn) [Example 26, 3-(4-(5-(4-(2,3-dichlorophenyl)piperazine-1-)pentyl)-1-oxoisoindoline-2-)piperidine-2,6-dione], the IC50 is under 100 nM. In the case of `C[C@]1(N2C(=O)c3cccc(OCCCN4CCN(c5cccc(Cl)c5Cl)CC4)c3C2=O)CCC(=O)NC1=O` [Example 27, (S)-4-(3-(4-(2,3-dichlorophenyl)piperazine-1-)propoxy)-2-(3-methyl-2,6-dioxopiperidine-3-)isoindoline-1,3-dione], the IC50 is 1000 to 20000 nM. Under `O=C1CCC(N2Cc3c(OCCCC(=O)N4CCN(c5ccccc5)CC4)cccc3C2=O)C(=O)N1` (stereo not drawn) [Example 28, 3-(1-oxo-4-(4-oxo-4-(4-phenylpiperazine-1-)butoxy)isoindoline-2-)piperidine-2,6-dione] stands under 100 nM; under `O=C1CCC(N2Cc3c(OCCCC(=O)N4CCN(c5cccc(Cl)c5Cl)CC4)cccc3C2=O)C(=O)N1` (stereo not drawn) [Example 29, 3-(4-(4-(4-(2,3-dichlorophenyl)piperazine-1-)-4-oxobutoxy)-1-oxoisoindoline-2-)piperidine-2,6-dione], under 100 nM. The result for `O=C1CCC(N2Cc3c(OCCCCC(=O)N4CCN(c5ccccc5)CC4)cccc3C2=O)C(=O)N1` (stereo not drawn) [Example 30] reads under 100 nM.

As for `O=C1CCC(N2Cc3c(OCCCCC(=O)N4CCN(c5cccc(Cl)c5Cl)CC4)cccc3C2=O)C(=O)N1` (stereo not drawn) [Example 31, 3-(4-((5-(4-(2,3-dichlorophenyl)piperazine-1-)-5-oxopentyl)oxy)-1-oxopentyl-2-)piperidine-2,6-dione], the IC50 is under 100 nM. The result for `O=C1CCC(N2Cc3c(OCCNC(=O)N4CCN(c5cccc(Cl)c5Cl)CC4)cccc3C2=O)C(=O)N1` (stereo not drawn) [Example 32, 4-(2,3-dichlorophenyl)-N-(2-((2-(2,6-dioxopiperidine-3-)-1-oxoisoindoline-4-)oxy)ethyl)piperazine-1-carboxamide] reads 100 to 1000 nM. Under `O=C1CCC(N2Cc3c(OCCCCNC(=O)N4CCN(c5cccc(Cl)c5Cl)CC4)cccc3C2=O)C(=O)N1` (stereo not drawn) [Example 33, 4-(2,3-dichlorophenyl)-N-(4-((2-(2,6-dioxopiperidine-3-)-1-oxoisoindoline-4-)oxy)butyl)piperazine-1-carboxamide] stands under 100 nM.
